Results from publication PMC6764291 (Frontiers in Oncology, 2019).

What was measured:
[1] = test system: UM-SCC-74B; test: XTT cell viability, UM-SCC-74B; format: cell-based, human
Protocol: The human squamous cell carcinoma cell lines UM-SCC-74A and UM-SCC-74B were kindly provided by Professor TE Carey (University of Michigan, USA) and cultured in Dulbecco's Modified Eagle Medium (DMEM) with 10% fetal bovine serum, 1% L-glutamine, 1% antibiotics (100 IU penicillin and 100 μg/ml streptomycin) as well as 1% non-essential amino acids (all from Biochrom Kg, Berlin, Germany). UT-SCC-45 (kindly provided by Dr. R. Grenman, Turku University Central Hospital, Finland) was cultured in DMEM with the abovementioned additives. HCT116 and A431 were purchased from American Type Culture Collection (Manassas, VA, USA). HCT116 was cultured in McCoy's modified Eagle medium with 10% fetal bovine serum, 1% L-glutamine and 1% antibiotics (100 IU penicillin and 100 μg/ml streptomycin) and A431 was cultured in Ham's F10 with the same additives. H314 was purchased from the European Collection of Authenticated Cell Cultures (Salisbury, UK) in DMEM/Ham's F12 (1:1) with the abovementioned additives. Cells were incubated at 37°C with 5% CO2, and cultivated for no longer than 2 months at a time.
(§1) Cells were irradiated using ^137Cs gamma-ray photons at a dose-rate of ~1 Gy/min (Best Theratronics Gammacell® 40Exactor, Springfield, USA).
Five-hundred to ten thousands cells were seeded in flat-bottomed 96-well plates and incubated for 48 h prior to irradiation with 2Gy. […] Cells were incubated at 37° for 4–5 days until 80–90% confluence had been obtained. A mix of XTT Activation Reagent and XTT Reagent was added according to the American Type Culture Collection 30–1011 K protocol (Manassas, VA, USA). Plates were incubated for up to 6 h at 37° and absorbance was measured by using a BioMark Microplate Reader (Bio-Rad Laboratories AB, Solna, Sweden).
GraphPad Prism version 6.07 (GraphPad Software, San Diego, USA) was used for data processing and analysis. p-values were determined using unpaired student's t-test for comparison between two groups or one-way ANOVA followed by Tukey's multiple comparisons test, with p < 0.05 (^*), p < 0.01 (^**), p < 0.001 (^***), and p < 0.0001 (^****). For XTT assays cell viability was normalized for irradiated and unirradiated samples separately. […] CDI ≤ 0.7 equaled significant synergistic effect, CDI ≤ 1 equaled additive effect and CDI > 1 equaled antagonistic effect ([29]).

[2] = test system: cleaved caspase-3; test: Flow cytometry cleaved caspase-3, HCT116; format: cell-based
Protocol: as §1
Cells were collected and fixed in 70% ethanol at 6, 12, 24, 48, 72, and 96 h post-irradiation and stored at −20°C. For cell cycle analyses, 6, 12, 24, and 48 h samples were rehydrated and washed twice with PBS and stained with DAPI (Sigma Aldrich Sweden, Stockholm, Sweden) using 1 μg/ml for 30 min. 24, 48, 72, and 96 h samples were stained with caspase-3 and Noxa (ab13847 (1:500) and ab13654 (1:1,000), AbCam, Cambridge, UK) overnight at 4°C, followed by incubation with fluorescent labeled secondary antibodies for 90 min (ab 1:400) at room temperature. Analyses were performed using a BD LSR Fortessa flow cytometer (Becton Dickinson Biosciences, San Jose, USA). Data analyses for cleaved caspase-3 and Noxa were performed with BD FACSDiVa (Becton Dickinson Biosciences, San Jose, USA), while cell cycle analyses of exclusively viable cells were performed using FlowJo (Becton, Dickinson Biosciences, San Jose, USA). Coefficient of variation (CV) values, were below seven for all samples.

[3] = test system: H314; test: XTT cell viability, H314; format: cell-based; settings: n ≥ 4
Protocol: The human squamous cell carcinoma cell lines UM-SCC-74A and UM-SCC-74B were kindly provided by Professor TE Carey (University of Michigan, USA) and cultured in Dulbecco's Modified Eagle Medium (DMEM) with 10% fetal bovine serum, 1% L-glutamine, 1% antibiotics (100 IU penicillin and 100 μg/ml streptomycin) as well as 1% non-essential amino acids (all from Biochrom Kg, Berlin, Germany). UT-SCC-45 (kindly provided by Dr. R. Grenman, Turku University Central Hospital, Finland) was cultured in DMEM with the abovementioned additives. HCT116 and A431 were purchased from American Type Culture Collection (Manassas, VA, USA). […]
Five-hundred to ten thousands cells were seeded in flat-bottomed 96-well plates and incubated for 48 h prior to irradiation with 2Gy. […] Plates were incubated for up to 6 h at 37° and absorbance was measured by using a BioMark Microplate Reader (Bio-Rad Laboratories AB, Solna, Sweden).
GraphPad Prism version 6.07 (GraphPad Software, San Diego, USA) was used for data processing and analysis. p-values were determined using unpaired student's t-test for comparison between two groups or one-way ANOVA followed by Tukey's multiple comparisons test, with p < 0.05 (^*), p < 0.01 (^**), p < 0.001 (^***), and p < 0.0001 (^****). […]

[4] = test system: cleaved caspase-3; test: Western Blot cleaved caspase-3 expression, UM-SCC-74B; format: cell-based, human
Protocol: as §1
Whole-cell lysates were prepared according to standard protocols. Protein concentrations were measured using a DeNovix DS-11 spectrophotometer (DeNovix Inc., Wilmington, DE, USA). Samples were separated on 4–12% Bis-Tris SDS gels and transferred to a nitrocellulose membrane (ThermoFisher Scientific, Uppsala, Sweden) by wet-transfer blotting. The membrane was blocked for 1 h in PBS with 5% BSA before incubation with primary antibodies targeting p53, caspase-3, NaK-ATPase and GLB1 (DO-1 (ab1101), ab13847, ab76020 and ab128993, AbCam, Cambridge, UK) and β-actin (A5441, Sigma Aldrich Sweden, Stockholm, Sweden) at 4°C overnight. After washing with PBS with 1% Tween-20, the membrane was incubated with respective and species-specific Horse Radish Peroxidase-labeled secondary antibody (ThermoFisher Scientific, Waltham, MA, USA) and stained with electro-chemiluminescent solution (Immobilon, Millipore, Bedford, USA).

CC(=O)N[C@H](C(=O)N[C@@H](CO)C(=O)N[C@@H](Cc1ccccc1)C(=O)N[C@]1(C)CCCCCCC=CCCC[C@@](C)(C(N)=O)NC(=O)[C@H](CC(C)C)NC(=O)[C@H](CC(C)C)NC(=O)[C@H](C)NC(=O)[C@H](Cc2c[nH]c3ccccc23)NC(=O)[C@H](Cc2ccc(O)cc2)NC(=O)[C@H](CCC(=O)O)NC1=O)[C@@H](C)O [PM2]
PM2 effect ([1]; 0–20 μM PM2, 0 Gy, wild-type p53, HPV negative, n = 6): decreased significantly the viability and Yes
average viability reduction ([1]; 20 μM PM2, 0 Gy, compared to untreated controls): 90%
IC50 ([1]; PM2 alone (0 Gy), 4–5 days, n = 6): 17 µM
lowest PM2 dose with significant decrease of viability ([1]; PM2 alone, compared with ~10 μM for HCT116 and UM-SCC-74A): slightly higher dose
lowest PM2 dose with significant drop in viability of combination versus PM2-monotherapy ([1]; PM2 with 2 Gy EBRT): 10 µM
Significant effect of combination ([1]; PM2 with 2 Gy EBRT, n = 6): most pronounced sensitivity and Yes
cleaved caspase-3 expression ([2]; 20 μM PM2, 72 h): distinct increases
cleaved caspase-3 increase compared to controls ([2]; 20 μM PM2-treated, peak at 96 h, n ≥ 3): 10 fold
PM2 effect ([3]; 0–20 μM PM2, 0 Gy, two p53 mutations, HPV negative): did not affect and No
Significant effect of combination ([3]; PM2 with 2 Gy EBRT): No
increase in cleaved caspase-3 levels ([4]; 20 μM PM2, 72 h, normalized to controls, n ≥ 3): Four-fold
cleaved caspase-3 expression ([4]; 20 μM PM2-treated samples, n ≥ 3): increase in expression
cleaved caspase-3 expression, combination ([4]; 2 Gy + 20 μM PM2, n ≥ 3): predominant
